Where a name gives a salt, the structure may show the parent alone.
Tested on: MTT (mouse pheochromocytoma)
Experiment: IC50 of cell viability (ATP content)
Conditions: (24 or 48 h)
Method in brief: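 MTT mouse pheochromocytoma cells (5 µl of 200,000 cells/ml per well, white 1536-well plates, DMEM with 5% FBS and 1% horse serum) were cultured overnight at 37°C, 5% CO2. They then received 23 nl library compound in DMSO by pintool at 8 concentrations (final 0.5 nM to 46 µM) for 24 or 48 hrs. CellTiter-Glo ATP luminescence was read after 15 minutes. Signals were normalised to positive-control (100% inhibition) and DMSO (0%) wells, and IC50 came from a four-parameter logistic fit.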

SMILES | IC50 of cell viability [µM]
C[C@](N)(Cc1ccc(O)c(O)c1)C(=O)O [Methyldopa sesquihydrate] | > 46
COC(=O)c1ccc(O)cc1 [Methylparaben] | > 46
C#CC(C)(O)CC (stereo unspecified) [Methylpentynolum] | > 46
COC(=O)C(c1ccccc1)C1CCCCN1.[Cl-].[H+] (stereo unspecified) [Methylphenidate hydrochloride] | > 46
CC(=O)OCC(=O)[C@@]1(O)CCC2C3C[C@H](C)C4=CC(=O)C=CC4(C)C3C(O)CC21C (stereo partly specified) [Methylprednisolone acetate] | > 46
C[C@H]\1C[C@H]2[C@H]3CC[C@](O)(C(=O)CO)[C@]3(C)C[C@@H](O)[C@@H]2[C@]4(C)\C=C/C(=O)/C=C14 [Methylprednisolone, 6-alpha] | > 46
Cc1cc2c(cc1[S+](N)(=O)[O-])[S+](=O)([O-])CCC2 [Meticrane] | > 46
CC(=O)Oc1c(C)cc(OCC(O)CNC(C)C)c(C)c1C (stereo unspecified) [Metipranolol] | > 46
CN1CCC[C@H](CC2c3ccccc3Sc3ccccc32)C1 [Metixene hydrochloride] | > 46
COc1ccc(/C=C/C(=O)c2ccc(OC)cc2OC)cc1 [Metochalcone] | > 46
Cc1ccccc1N1C(=O)c2cc([S+](N)(=O)[O-])c(Cl)cc2NC1C (stereo unspecified) [Metolazone] | > 46
COC1=CC=C2[N]3CCN(C)\C4=N\CCC(=C34)C2=C1 [Metralindole] | > 46
Cc1ccccc1CNc1ncnc2c1ncn2C1OC(CO)C(O)C1O (stereo unspecified) [Metrifudil] | > 46
CC(=O)Nc1c(I)c(C(=O)N[C@H]2[C@H](O)[C@H](O)[C@H](CO)O[C@@H]2O)c(I)c(N(C)C(C)=O)c1I [Metrizamide] | > 46
CC(C)(C(=O)c1cccnc1)c1cccnc1 [Metyrapone] | > 46
C[C@](N)(Cc1ccc(O)cc1)C(=O)O [Metyrosine] | > 46
COc1ccc(C(=O)c2ccc(C)cc2)c(O)c1 [Mexenone] | > 46
Cc1cccc(C)c1OCC(C)N.Cl (stereo unspecified) [Mexiletene hydrochloride] | > 46
Clc1ccc(CO[C@@H](Cn2ccnc2)c2ccc(Cl)cc2Cl)c(Cl)c1 [Miconazole] | > 46
CNC[C@@H]1CC[C@@H](N)[C@@H](O[C@H]2[C@H](O)[C@@H](O[C@H]3OC[C@](C)(O)[C@H](NC)[C@H]3O)[C@H](N)C[C@@H]2N)O1 [Micronomicin sulfate] | > 46
CCC(=O)O[C@@H]1[C@H](C)O[C@@H](O[C@H]2[C@@H](N(C)C)[C@@H](O)[C@H](O[C@H]3[C@H](CC=O)C[C@@H](C)[C@@H](O)/C=C\C=C/C[C@@H](C)OC(=O)C[C@@H](OC(=O)CC)[C@H]3OC)O[C@H]2C)C[C@]1(C)O [Midecamycin] | > 46
COc1ccc(OC)c([C@H](O)CNC(=O)CN)c1 [Midodrine hydrochloride] | > 46
Cc1[nH]c(=O)c(C#N)cc1-c1ccncc1 [Milrinone] | > 46
C\C1=C(\C=C(\C#N)C(=O)N1)C2=CC=NC=C2 [Milrinone] | > 46
CN(C)c1ccc(O)c2c1CC1CC3C(N(C)C)C(=O)C(C(N)=O)C(=O)C3(O)C(=O)C1C2=O (stereo unspecified) [Minocycline] | > 46
O=P(O)(O)C(O)(Cc1cnc2ccccn12)P(=O)(O)O [Minodronic acid] | > 46

From the supplement of paper PMC3974653
